# Experimental data reported in ChEMBL document CHEMBL3714749, “Quinoxaline derivatives as gpr6 modulators” (2014).
# Biological target: G-protein coupled receptor 6 (Homo sapiens, UniProt P46095)
# Experiment: Activity at GPR6 (unknown origin) expressed in CHOK1 cells assessed as inhibition of constitutive cAMP activity incubated for 45 mins by HTRF based cAMP detection assay
# Format: functional, cell-based, CHO-K1
# Sequence of G-protein coupled receptor 6 (P46095 whole entry): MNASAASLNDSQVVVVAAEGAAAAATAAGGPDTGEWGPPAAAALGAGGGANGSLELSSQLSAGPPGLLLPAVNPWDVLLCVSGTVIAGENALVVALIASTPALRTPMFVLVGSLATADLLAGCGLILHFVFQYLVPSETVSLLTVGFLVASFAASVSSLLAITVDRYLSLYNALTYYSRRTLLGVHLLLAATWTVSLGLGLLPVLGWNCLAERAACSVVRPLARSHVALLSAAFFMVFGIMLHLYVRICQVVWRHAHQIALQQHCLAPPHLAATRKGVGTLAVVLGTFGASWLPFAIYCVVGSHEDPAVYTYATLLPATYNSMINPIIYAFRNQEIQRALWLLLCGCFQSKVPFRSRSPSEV
row,Compound,IC50 [nM]
1,CC(C)Nc1cc(Cl)cc(C(=O)C2CCN(c3nc4ccc(C#N)cc4nc3NC(C)C)CC2)c1,276
2,COCCNc1nc2ccncc2nc1N1CCC(Oc2ccc(F)cc2F)CC1,670
3,CC(C)OCCNc1nc2ccccc2nc1N1CCN(Cc2cc(Cl)ccc2Cl)CC1,3330
4,N#Cc1cccc(C(=O)C2CCN(c3nc4cnccc4nc3NC3CC3)CC2)c1,7210
5,C[C@@H](CO)Nc1nc2ccccc2nc1N1CCN(Cc2cc(Cl)ccc2Cl)CC1,1570
6,O=C(c1cc(F)ccc1Cl)C1CCN(c2nc3cnccc3nc2NC2CC2)CC1,62
7,CCOc1ccc(OC2CCN(c3nc4cnccc4nc3NC3CC3)CC2)cc1,1020
8,CN(C)C(=O)c1cc2nc(NC3CC3)c(N3CCC(Oc4ccc(F)cc4F)CC3)nc2cn1,5
9,N#Cc1ccc2nc(NCC(F)F)c(N3CCC(Cc4ccc(F)cc4F)CC3)nc2c1,71
10,COc1ccc(CC2CCN(c3nc4cnc(C#N)cc4nc3NC(C)C)CC2)c(F)c1,26
11,CSc1ccc(OC2CCN(c3nc4cnncc4nc3NC3CC3)CC2)c(F)c1,14
12,Clc1ccc(Cl)c(CN2CCN(c3nc4ccncc4nc3NC3CC3)CC2)c1,56
13,COc1ccc(CN2CCN(c3nc4c(C#N)nccc4nc3NC3CC3)CC2)c(F)c1,88
14,Cc1cc(CN2CCN(c3nc4ccccc4nc3NC3CC3)CC2)no1,105000
15,Clc1ccc(Cl)c(CN2CCN(c3nc4ccccc4nc3NC3CCOCC3)CC2)c1,4070
16,Cc1nccc2nc(NC3CC3)c(N3CCC(C(F)(F)c4cc(F)ccc4F)CC3)nc12,45
17,COc1ccc(OC2CCN(c3nc4cnccc4nc3NC3CC3)CC2)cc1,190
18,Fc1cc(Cl)ccc1OC1CCN(c2nc3cnncc3nc2NC2CC2)CC1,30
19,O=C(c1c(Cl)ccc(F)c1F)C1CCN(c2nc3cnccc3nc2NC2CC2)CC1,3900
20,Fc1ccc(Cl)cc1C(F)(F)C1CCN(c2nc3cnccc3nc2NC2CC2)CC1,46
21,O=C(c1nccc2nc(NC3CC3)c(N3CCC([C@@H](F)c4ccc(F)cc4F)CC3)nc12)N1CCOCC1,7
22,O=C(c1c(F)cc(Cl)cc1F)C1CCN(c2nc3cnccc3nc2NC2CC2)CC1,200
23,CC(C)Nc1nc2ccncc2nc1N1CCC(C(F)c2ccc(F)cc2F)CC1 (configuration not stated),29
24,Cc1cc2nc(NC3CC3)c(N3CCC(S(=O)(=O)c4ccc(F)cc4)CC3)nc2cn1,93
25,N#Cc1ccc2nc(NC3CC(=O)C3)c(N3CCN(Cc4cc(Cl)ccc4Cl)CC3)nc2c1,97
26,N#Cc1cc2nc(NC3CC3)c(N3CCC([C@H](F)c4ccc(F)cc4F)CC3)nc2cn1,11

row,Compound,IC50 [nM]
1,CN(C)C(=O)c1cc2nc(NC3CC3)c(N3CCN(C(=O)c4cc(F)ccc4Cl)CC3)nc2cn1,1570
2,Clc1ccc(Cl)c(CN2CCN(c3nc4cnccc4nc3NC3CC3)CC2)c1,32
3,O=C(c1ccc(F)c(F)c1)C1CCN(c2nc3cnccc3nc2NC2CC2)CC1,8390
4,Cc1ccccc1C(=O)C1CCN(c2nc3cnccc3nc2NC2CC2)CC1,5780
5,CC(C)Nc1nc2cc(C(=O)N(C)C)ncc2nc1N1CCN(Cc2ccc(F)cc2F)CC1,40
6,Fc1ccc(F)c(CN2CCN(c3nc4ccncc4nc3NC3CC3)CC2)c1,140
7,Cc1nccc2nc(NC3CC3)c(N3CCC(C(F)c4ccc(F)cc4F)CC3)nc12 (configuration not stated),9
8,N#Cc1ccccc1OC1CCN(c2nc3cnccc3nc2NC2CC2)CC1,2880
9,CN(C)C(=O)c1cc2nc(NC3CC3)c(N3CCC([C@@H](F)c4ccc(F)cc4F)CC3)nc2cn1,8
10,N#Cc1cccc2nc(N3CCN(Cc4cc(Cl)ccc4Cl)CC3)c(NC3CC3)nc12,1490
11,Fc1ccc(CC2CCN(c3nc4ccncc4nc3NC3CC3)CC2)c(F)c1,27
12,FC(F)Oc1ccc(Cl)cc1CN1CCN(c2nc3cnccc3nc2NC2CC2)CC1,270
13,Fc1cnc(Cl)c(CN2CCN(c3nc4ccccc4nc3NC3CC3)CC2)c1,20400
14,CC(C)Nc1nc2cnncc2nc1N1CCC(C(F)c2ccc(F)cc2F)CC1 (configuration not stated),6
15,COc1ccc2nc(N3CCN(Cc4cc(Cl)ccc4Cl)CC3)c(NC3CC3)nc2c1,3360
16,Fc1ccc(CC2CCN(c3nc4cc(F)ccc4nc3NC3CC3)CC2)c(F)c1,72
17,Fc1ccc(F)c(OC2CCN(c3nc4cnccc4nc3NC3CC3)CC2)c1,1100
18,Oc1ccc(OC2CCN(c3nc4ccncc4nc3NC3CC3)CC2)c(F)c1,54
19,Cc1cccc(CN2CCN(c3nc4ccccc4nc3NC3CC3)CC2)c1C,3640
20,O=C(c1cc(Cl)ccc1F)C1CCN(c2nc3cnccc3nc2NC2CC2)CC1,35
21,N#Cc1ccc(F)c(C(=O)C2CCN(c3nc4cnccc4nc3NC3CC3)CC2)c1,69
22,COc1ccc(CN2CCN(c3nc4cnc(C(=O)N(C)C)cc4nc3NC3CC3)CC2)c(F)c1,939
23,O=C(c1ccsc1)C1CCN(c2nc3cnccc3nc2NC2CC2)CC1,2290
24,CCNc1nc2cnccc2nc1N1CCC(Oc2ccc(OC)cc2F)CC1,39
25,Fc1ccc(CC2CCN(c3nc4cc(F)c(F)cc4nc3NC3CC3)CC2)c(F)c1,140
26,COCCNc1nc2ccc(C#N)cc2nc1N1CCC(Cc2ccc(F)cc2F)CC1,250

row,Compound,IC50 [nM]
1,CC(C)Nc1nc2cnncc2nc1N1CCC(Oc2ccc(OCF)cc2F)CC1,8
2,CC(C)Nc1nc2cc(C#N)ncc2nc1N1CCC(C(=O)c2cc(F)cc(F)c2)CC1,28
3,CN(C)C(=O)c1cc2nc(NCC(F)F)c(N3CCC(Oc4ccc(F)cc4F)CC3)nc2cn1,65
4,Cc1c(Cl)cc(F)cc1S(=O)(=O)N1CCN(c2nc3cc(C#N)ccc3nc2NC2CC2)CC1,960
5,CSc1ccc(F)c(C(=O)C2CCN(c3nc4cnccc4nc3NC3CC3)CC2)c1,478
6,CC(C)Nc1nc2ccc(C#N)cc2nc1N1CCC([C@@H](F)c2ccc(F)cc2F)CC1,49
7,Fc1ccc(OC2CCN(c3nc4cnncc4nc3NC3CC3)CC2)c(F)c1,18
8,N#Cc1ccc2nc(NC3CC3)c(N3CCC(Oc4ccc(F)cc4F)CC3)nc2c1,90
9,Fc1cc2nc(NC3CC3)c(N3CCN(Cc4cc(Cl)ccc4Cl)CC3)nc2cc1F,800
10,CC(C)Nc1nc2cc(C(=O)N(C)C)ncc2nc1N1CCC(Oc2ccc(Cl)cc2F)CC1,6
11,COc1ccc(OC2CCN(c3nc4ccncc4nc3NC3CC3)CC2)c(F)c1,44
12,Cc1nccc2nc(NC3CC3)c(N3CCC(Oc4ccc(F)cc4F)CC3)nc12,18
13,Cc1cc2nc(NC3CC3)c(N3CCC(Cn4cc(Cl)ccc4=O)CC3)nc2cn1,770
14,Cc1nnc(Nc2nc3ccccc3nc2N2CCN(Cc3cc(Cl)ccc3Cl)CC2)nc1C,17800
15,COc1ccc(OC2CCN(c3nc4ccncc4nc3NC(C)C)CC2)c(F)c1,12
16,CS(=O)(=O)c1ccc(C(=O)N2CCN(c3nc4ccccc4nc3NC3CC3)CC2)cc1,530
17,CC(C)Nc1nc2cc(C(=O)N(C)C)ncc2nc1N1CCC(C(=O)c2cc(F)cc(F)c2)CC1,16
18,CC(C)Nc1nc2cnncc2nc1N1CCC(Oc2ccc(C#N)cc2F)CC1,72
19,COc1ccc(C(=O)C2CCN(c3nc4cnncc4nc3NC(C)C)CC2)c(F)c1,54
20,O=C(c1ccc(C(F)F)cc1)N1CCN(c2nc3cnccc3nc2NC2CC2)CC1,2650
21,Fc1ccc(OC2CCN(c3nc4cc(Br)ccc4nc3NC3CC3)CC2)c(F)c1,1430
22,Clc1ccc(Cl)c(CN2CCN(c3nc4ccccc4nc3Nc3cnccn3)CC2)c1,2340
23,Fc1ccc(C(F)(F)C2CCN(c3nc4cnccc4nc3NC3CC3)CC2)c(F)c1,16
24,COc1cc2nc(NC3CC3)c(N3CCC(Cc4ccc(F)cc4F)CC3)nc2cn1,29
25,O=C(c1nccc2nc(NC3CC3)c(N3CCC([C@H](F)c4ccc(F)cc4F)CC3)nc12)N1CCOCC1,6
26,O=C(c1cccc(Cl)c1)C1CCN(c2nc3cnccc3nc2NC2CC2)CC1,11000

row,Compound,IC50 [nM]
1,Fc1ccc(F)c(CN2CCN(c3nc4cnccc4nc3NC3CC3)CC2)c1,120
2,N#Cc1ccc2nc(NC3CC3)c(N3CCN(S(=O)(=O)c4ccc(Cl)cc4)CC3)nc2c1,570
3,Fc1ccc([C@H](F)C2CCN(c3nc4cnncc4nc3NC3CC3)CC2)c(F)c1,22
4,N#Cc1ccc2nc(NC3CC3)c(N3CCN(S(=O)(=O)c4cccc(Cl)c4)CC3)nc2c1,5620
5,Fc1ccc(CC2CCN(c3nc4cnc(Cl)cc4nc3NC3CC3)CC2)c(F)c1,31
6,COc1ccc(CN2CCN(c3nc4cnc(N5CCOCC5)cc4nc3NC3CC3)CC2)c(F)c1,92
7,O=C(c1csc(Cl)c1)C1CCN(c2nc3cnccc3nc2NC2CC2)CC1,4810
8,CC(O)c1ccc(OC2CCN(c3nc4cnccc4nc3NC3CC3)CC2)cc1 (configuration not stated),6040
9,Fc1ccc(C(F)C2CCN(c3nc4cnc(Br)cc4nc3NC3CC3)CC2)c(F)c1 (configuration not stated),29
10,Fc1ccc([C@@H](F)C2CCN(c3nc4cnccc4nc3NC3CC3)CC2)c(F)c1,24
11,O=S(=O)(c1ccccc1)N1CCN(c2nc3cc(F)ccc3nc2NC2CC2)CC1,9440
12,COc1cccc(CN2CCN(c3nc4cnncc4nc3NC(C)C)CC2)c1,44
13,Cc1cc2nc(NC3CC3)c(N3CCC([C@H](F)c4cc(F)ccc4F)CC3)nc2cn1,11
14,N#Cc1cc2nc(NC3CC3)c(N3CCC(Cc4ccc(F)cc4F)CC3)nc2cn1,15
15,CC[C@@H](C)Nc1nc2cnncc2nc1N1CCC(Oc2ccc(OC)cc2F)CC1,30
16,O=S(=O)(c1ccccc1)N1CCN(c2nc3ccccc3nc2Nc2cccnc2)CC1,4630
17,O=C(c1ccccc1Br)C1CCN(c2nc3cnccc3nc2NC2CC2)CC1,78
18,Cc1cc2nc(NC3CC3)c(N3CCC(C(F)c4ccc(F)cc4F)CC3)nc2cn1 (configuration not stated),7
19,N#Cc1ccc2nc(NC3CC3)c(N3CCN(S(=O)(=O)c4ccc(Br)s4)CC3)nc2c1,420
20,Clc1ccc(Cl)c(CN2CCN(c3nc4ccccc4nc3Nc3cccnn3)CC2)c1,1670
21,Cc1ccc(S(=O)(=O)N2CCN(c3nc4cc(C#N)ccc4nc3NC3CC3)CC2)cc1,4740
22,CC(C)Nc1nc2ccc(C#N)cc2nc1N1CCC(C(F)c2cc(F)ccc2F)CC1 (configuration not stated),98
23,CSc1ccc(OC2CCN(c3nc4cnccc4nc3NC3CC3)CC2)cc1,146
24,N#Cc1ccc2nc(NCCC(F)(F)F)c(N3CCN(Cc4ccc(F)cc4F)CC3)nc2c1,390
